Experimental data reported in the supplement of paper PMC10132981, “Formate overflow drives toxic folate trapping in MTHFD1 inhibited cancer cells” (Nature Metabolism, 2023).
± gives the standard deviation of the averaged measurements.

Experiments:
HCT116 = experiment: EC50 for viability (resazurin, 96 h); settings: RPMI+GlutaMAX (10% FBS, 1% P/S)
SW620 = experiment: EC50 for viability (resazurin, 96 h); settings: RPMI+GlutaMAX (10% FBS, 1% P/S)
SW620 MTHFD2-/- = experiment: cell viability relative to vehicle (resazurin, 96 h); higher = more viable; settings: base medium: RPMI + dialysed FBS
Protocol: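 SW620 WT or MTHFD2-/- cells were treated for 96 h with a compound dilution series (log10 M) in RPMI with normal or dialysed FBS. Viability was read by resazurin and is given as % of vehicle.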

[1] = metabolite supplement: Hypoxanthine
[2] = metabolite supplement: Thymidine
[3] = metabolite supplement: Thymidine + Hypoxanthine

Work on `O=c1[nH]cc(F)c(=O)[nH]1` [5-fluorouracil] yielded an EC50 for viability (HCT116; [1]) of 3.08 µM, an EC50 for viability (HCT116; [2]) of 2.22 µM and an EC50 for viability (HCT116; [3]) of 3.29 µM. The EC50 for viability (SW620; metabolite supplement: Folic acid) was 4.72 µM, the EC50 for viability (SW620; metabolite supplement: Folinic acid) was 4.28 µM and the EC50 for viability (SW620; [1]) was 7.63 µM. For the same compound, the EC50 for viability (SW620; [2]) was 4.39 ± 0.33 µM, the EC50 for viability (SW620; metabolite supplement: Thymidine + Folic acid) was 4.5 µM and the EC50 for viability (SW620; metabolite supplement: Thymidine + Folinic acid) was 4.32 µM. It also gave an EC50 for viability (SW620; [3]) of 7.42 µM and an EC50 for viability (SW620; metabolite supplement: Vehicle) of 5.04 ± 0.38 µM.

In the case of `Cc1[nH]nc2c1C(c1cc(CO)cc(-c3ccccc3)c1)(C(C)C)C(C#N)=C(N)O2` (stereo not given) [SHIN1], the EC50 for viability (SW620; [1]) is reported as > 10 µM, the EC50 for viability (SW620; metabolite supplement: Sodium Formate) is reported as > 10 µM and the EC50 for viability (SW620; [2]) is reported as 1.88 µM. The EC50 for viability (SW620; [3]) was > 10 µM, the EC50 for viability (SW620; metabolite supplement: Thymidine + Sodium Formate) was > 10 µM and the cell viability (SW620 MTHFD2-/-; log10 compound concentration (M): -5, supplement / serum: Hypoxanthine+Sodium Formate) was 91.8 ± 12%. It also gave a cell viability (SW620 MTHFD2-/-; log10 compound concentration (M): -5, supplement / serum: Hypoxanthine) of 88.2 ± 9%, a cell viability (SW620 MTHFD2-/-; log10 compound concentration (M): -5, supplement / serum: Sodium Formate) of 83.5 ± 11% and a cell viability (SW620 MTHFD2-/-; log10 compound concentration (M): -5, supplement / serum: Vehicle) of 12.1 ± 2.5%. It also gave a cell viability (SW620 MTHFD2-/-; log10 compound concentration (M): -5.47712, supplement / serum: Hypoxanthine+Sodium Formate) of 109 ± 5.6%, a cell viability (SW620 MTHFD2-/-; log10 compound concentration (M): -5.47712, supplement / serum: Hypoxanthine) of 102 ± 8.9% and a cell viability (SW620 MTHFD2-/-; log10 compound concentration (M): -5.47712, supplement / serum: Sodium Formate) of 104 ± 7%. For the same compound, the cell viability (SW620 MTHFD2-/-; log10 compound concentration (M): -5.47712, supplement / serum: Vehicle) was 13.6 ± 1%, the cell viability (SW620 MTHFD2-/-; log10 compound concentration (M): -5.95424, supplement / serum: Hypoxanthine+Sodium Formate) was 107 ± 6.6% and the cell viability (SW620 MTHFD2-/-; log10 compound concentration (M): -5.95424, supplement / serum: Hypoxanthine) was 105 ± 8.2%. It also gave a cell viability (SW620 MTHFD2-/-; log10 compound concentration (M): -5.95424, supplement / serum: Sodium Formate) of 99.9 ± 4.8%, a cell viability (SW620 MTHFD2-/-; log10 compound concentration (M): -5.95424, supplement / serum: Vehicle) of 13.9 ± 1.6% and a cell viability (SW620 MTHFD2-/-; log10 compound concentration (M): -6.43136, supplement / serum: Hypoxanthine+Sodium Formate) of 109 ± 4%. For the same compound, the cell viability (SW620 MTHFD2-/-; log10 compound concentration (M): -6.43136, supplement / serum: Hypoxanthine) was 103 ± 1.6%, the cell viability (SW620 MTHFD2-/-; log10 compound concentration (M): -6.43136, supplement / serum: Sodium Formate) was 102 ± 4.2% and the cell viability (SW620 MTHFD2-/-; log10 compound concentration (M): -6.43136, supplement / serum: Vehicle) was 14.8 ± 1.4%. It also gave a cell viability (SW620 MTHFD2-/-; log10 compound concentration (M): -6.90849, supplement / serum: Hypoxanthine+Sodium Formate) of 104 ± 4.4%, a cell viability (SW620 MTHFD2-/-; log10 compound concentration (M): -6.90849, supplement / serum: Hypoxanthine) of 101 ± 5.4% and a cell viability (SW620 MTHFD2-/-; log10 compound concentration (M): -6.90849, supplement / serum: Sodium Formate) of 108 ± 3.8%. It also gave a cell viability (SW620 MTHFD2-/-; log10 compound concentration (M): -6.90849, supplement / serum: Vehicle) of 16.4 ± 1.8%, a cell viability (SW620 MTHFD2-/-; log10 compound concentration (M): -7.38561, supplement / serum: Hypoxanthine+Sodium Formate) of 86.8 ± 6.8% and a cell viability (SW620 MTHFD2-/-; log10 compound concentration (M): -7.38561, supplement / serum: Hypoxanthine) of 88.3 ± 9.3%. The cell viability (SW620 MTHFD2-/-; log10 compound concentration (M): -7.38561, supplement / serum: Sodium Formate) was 85.4 ± 4.3%, the cell viability (SW620 MTHFD2-/-; log10 compound concentration (M): -7.38561, supplement / serum: Vehicle) was 14 ± 0.95% and the cell viability (SW620 MTHFD2-/-; log10 compound concentration (M): -7.86273, supplement / serum: Hypoxanthine+Sodium Formate) was 99.9 ± 8.4%. For the same compound, the cell viability (SW620 MTHFD2-/-; log10 compound concentration (M): -7.86273, supplement / serum: Hypoxanthine) was 92.2 ± 10%, the cell viability (SW620 MTHFD2-/-; log10 compound concentration (M): -7.86273, supplement / serum: Sodium Formate) was 90.9 ± 5.5% and the cell viability (SW620 MTHFD2-/-; log10 compound concentration (M): -7.86273, supplement / serum: Vehicle) was 27.1 ± 3%. The cell viability (SW620 MTHFD2-/-; log10 compound concentration (M): -8.33985, supplement / serum: Hypoxanthine+Sodium Formate) was 102 ± 2.4%, the cell viability (SW620 MTHFD2-/-; log10 compound concentration (M): -8.33985, supplement / serum: Hypoxanthine) was 101 ± 5.1% and the cell viability (SW620 MTHFD2-/-; log10 compound concentration (M): -8.33985, supplement / serum: Sodium Formate) was 99.8 ± 4.9%. It also gave a cell viability (SW620 MTHFD2-/-; log10 compound concentration (M): -8.33985, supplement / serum: Vehicle) of 47.3 ± 3.7%, a cell viability (SW620 MTHFD2-/-; log10 compound concentration (M): -8.81697, supplement / serum: Hypoxanthine+Sodium Formate) of 103 ± 7.2% and a cell viability (SW620 MTHFD2-/-; log10 compound concentration (M): -8.81697, supplement / serum: Hypoxanthine) of 101 ± 8%. For the same compound, the cell viability (SW620 MTHFD2-/-; log10 compound concentration (M): -8.81697, supplement / serum: Sodium Formate) was 99 ± 6.2%, the cell viability (SW620 MTHFD2-/-; log10 compound concentration (M): -8.81697, supplement / serum: Vehicle) was 65.1 ± 3.5% and the cell viability (SW620 MTHFD2-/-; log10 compound concentration (M): -9.29409, supplement / serum: Hypoxanthine+Sodium Formate) was 99.9 ± 2.3%. It also gave a cell viability (SW620 MTHFD2-/-; log10 compound concentration (M): -9.29409, supplement / serum: Hypoxanthine) of 96.8 ± 6%, a cell viability (SW620 MTHFD2-/-; log10 compound concentration (M): -9.29409, supplement / serum: Sodium Formate) of 97.1 ± 4.1% and a cell viability (SW620 MTHFD2-/-; log10 compound concentration (M): -9.29409, supplement / serum: Vehicle) of 85.7 ± 3.4%. For the same compound, the cell viability (SW620 MTHFD2-/-; log10 compound concentration (M): -9.77121, supplement / serum: Hypoxanthine+Sodium Formate) was 105 ± 8%, the cell viability (SW620 MTHFD2-/-; log10 compound concentration (M): -9.77121, supplement / serum: Hypoxanthine) was 102 ± 6% and the cell viability (SW620 MTHFD2-/-; log10 compound concentration (M): -9.77121, supplement / serum: Sodium Formate) was 98.8 ± 5.4%. For the same compound, the cell viability (SW620 MTHFD2-/-; log10 compound concentration (M): -9.77121, supplement / serum: Vehicle) was 92.1 ± 5.2%.
